In US10611740B2, “Aryl dihydro-2H-benzo[b][1,4]oxazine sulfonamide and related compounds for use as agonists of RORγ and the treatment of disease” (Lycera Corporation, priority 2015, dated 2020):

Legend:
Gal4-RORγ-LBD = target: T1, Gal4-RORγ-LBD (Homo sapiens, UniProt P51449); test: Gal4-RORγ Luciferase Reporter Assay in HEK-293T Cells; assay type: cell-based; conditions: HEK-293 cells
T1 construct: expressed in transfected cells; host or cells: HEK-293 cells (pcDNA3.1neo plasmid)
T1 sequence (P51449 269-508 limits assumed): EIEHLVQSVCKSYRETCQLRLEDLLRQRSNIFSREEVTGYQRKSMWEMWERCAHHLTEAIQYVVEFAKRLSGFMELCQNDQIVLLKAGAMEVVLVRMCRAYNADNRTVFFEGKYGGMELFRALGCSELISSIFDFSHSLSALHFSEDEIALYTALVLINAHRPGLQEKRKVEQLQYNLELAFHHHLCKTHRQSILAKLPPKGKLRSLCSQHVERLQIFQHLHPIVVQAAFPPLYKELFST
How it was run: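 HEK-293 cells were transiently co-transfected with Gal4-RORγ-LBD and pGL4.31 Gal4-luciferase, with ursolic acid added at 2 μM final. Compounds were incubated overnight at 37° C. in 0.2% DMSO and luminescence read with One-Glo. Max Response is the upper plateau of a 4-parameter logistic fit, with signal lacking ursolic acid or compound set to 100.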

RORγ-LBD = target: T2, RORγ-LBD (Homo sapiens, UniProt P51449); test: RORγ-Ligand Binding Domain (LBD) TR-FRET Assay; assay type: biochemical;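 for TR-FRET Assay Max Response: 665/615 nm ratio relative to signal without ursolic acid or compound set at 100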
T2 construct: made in house; host or cells: SF9 cells (baculovirus)
T2 sequence (P51449 269-508 limits assumed): T1 sequence (P51449 269-508 limits assumed)
How it was run: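 His-tagged RORγ-LBD from SF9 baculovirus lysate, ~3 nM final, in 50 mM Tris pH 7.0, 50 mM KCl, 1 mM EDTA, 0.1 mM DTT, 0.01% BSA. Biotinylated SRC1 LXXLL peptide at 200 nM final with 2 μM ursolic acid; TR-FRET read-out, 1% DMSO final.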

[1] = luciferase reporter, with 2 μM ursolic acid

Row | SMILES | EC50 (Gal4-RORγ-LBD; 2 μM ursolic acid) [nM] | Gal4-RORγ Assay Max Response (Gal4-RORγ-LBD; 2 μM ursolic acid) | EC50 (RORγ-LBD) [nM] | TR-FRET Assay Max Response (RORγ-LBD) | EC50 (Gal4-RORγ-LBD; [1]) [nM] | Gal4-RORγ Assay Max Response (Gal4-RORγ-LBD; [1])
1 | CC(F)C(=O)NC[C@H]1CN(S(=O)(=O)c2cccc(C(F)(F)F)c2)c2cc(-c3cccc(F)c3Cl)ccc2O1 (stereo partly drawn) [Compound 30CK, N-(((S)-6-(2-chloro-3-fluoro-phenyl)-4-((3-(trifluoromethyl)-phenyl)sulfonyl)-3,4-dihydro-2H-benzo[b][1,4]oxazin-2-yl)methyl)-2-fluoropropanamide] | 500 to 5000 | * (The symbol “*” indicates a value in the range of 25 to 90) | < 500 | ** (The symbol “**” indicates a value in the range of greater than 90 to 150) | – | –
2 | CC(C)(C(=O)NC[C@H]1CN(S(=O)(=O)c2cccc(C(F)(F)F)c2)c2cc(-c3cc(F)cc(F)c3Cl)ccc2O1)C(F)(F)F [Compound 30CL, (S)-N-((6-(2-chloro-3,5-difluoro-phenyl)-4-((3-(trifluoromethyl)-phenyl)sulfonyl)-3,4-dihydro-2H-benzo[b][1,4]oxazin-2-yl)methyl)-3,3,3-trifluoro-2,2-dimethylpropanamide] | 500 to 5000 | * (The symbol “*” indicates a value in the range of 25 to 90) | 500 to 5000 | ** (The symbol “**” indicates a value in the range of greater than 90 to 150) | – | –
3 | CC(=O)NC(C)(C)C[C@H]1CN(S(=O)(=O)c2cccc(C(F)(F)F)c2)c2cc(-c3cc(F)ccc3F)ccc2O1 [Compound 30CV, (S)-N-(1-(6-(2,5-difluoro-phenyl)-4-((3-(trifluoromethyl)-phenyl)sulfonyl)-3,4-dihydro-2H-benzo[b][1,4]oxazin-2-yl)-2-methylpropan-2-yl)acetamide] | < 500 | * (The symbol “*” indicates a value in the range of 25 to 90) | < 500 | *** (The symbol “***” indicates a value in the range of greater than 150 to 200) | – | –
4 | CC(C)(C[C@H]1CN(S(=O)(=O)c2cccc(C(F)(F)F)c2)c2cc(-c3cc(F)ccc3F)ccc2O1)NC(=O)C(C)(C)O [Compound 30CX, (S)-N-(1-(6-(2,5-difluoro-phenyl)-4-((3-(trifluoromethyl)-phenyl)sulfonyl)-3,4-dihydro-2H-benzo[b][1,4]oxazin-2-yl)-2-methylpropan-2-yl)-2-hydroxy-2-methylpropanamide] | < 500 | * (The symbol “*” indicates a value in the range of 25 to 90) | < 500 | ** (The symbol “**” indicates a value in the range of greater than 90 to 150) | – | –
5 | CC(C)c1cccc(S(=O)(=O)N2C[C@H](CCNC(=O)C(C)(C)O)Oc3ccc(-c4cc(F)ccc4F)cc32)c1 [Compound 30D, (S)-N-(2-(6-(2,5-difluoro-phenyl)-4-((3-isopropylphenyl)-sulfonyl)-3,4-dihydro-2H-benzo[b][1,4]oxazin-2-yl)ethyl)-2-hydroxy-2-methylpropanamide] | – | – | < 500 | **** (The symbol “****” indicates a value greater than 200) | < 500 | * (The symbol “*” indicates a value in the range of 25 to 90)
6 | NS(=O)(=O)CCC(=O)NC[C@H]1CN(S(=O)(=O)c2cccc(C(F)(F)F)c2)c2cc(-c3cc(F)cc(OC(F)F)c3)ccc2O1 [Compound 30DA, (S)-N-((6-(3-(difluoromethoxy)-5-fluorophenyl)-4-((3-(trifluoro-methyl)phenyl)sulfonyl)-3,4-dihydro-2H-benzo[b][1,4]-oxazin-2-yl)methyl)-3-sulfamoylpropanamide] | 500 to 5000 | * (The symbol “*” indicates a value in the range of 25 to 90) | < 500 | *** (The symbol “***” indicates a value in the range of greater than 150 to 200) | – | –
7 | CC(=O)NC(C)(C)C[C@@H]1CN(S(=O)(=O)c2cccc(C(F)(F)F)c2)c2cc(-c3cc(F)ccc3F)ccc2O1 [Compound 30DC, (R)-N-(1-(6-(2,5-difluoro-phenyl)-4-((3-(trifluoromethyl)-phenyl)sulfonyl)-3,4-dihydro-2H-benzo[b][1,4]oxazin-2-yl)-2-methylpropan-2-yl)acetamide] | 500 to 5000 | * (The symbol “*” indicates a value in the range of 25 to 90) | < 500 | *** (The symbol “***” indicates a value in the range of greater than 150 to 200) | – | –
8 | CC(C)(C[C@H]1CN(S(=O)(=O)c2cccc(C(F)(F)F)c2)c2cc(-c3cc(F)ccc3F)ccc2O1)NS(C)(=O)=O [Compound 30DE, (S)-N-(1-(6-(2,5-difluoro-phenyl)-4-((3-(trifluoromethyl)-phenyl)sulfonyl)-3,4-dihydro-2H-benzo[b][1,4]oxazin-2-yl)-2-methylpropan-2-yl)methane-sulfonamide] | < 500 | * (The symbol “*” indicates a value in the range of 25 to 90) | < 500 | *** (The symbol “***” indicates a value in the range of greater than 150 to 200) | – | –
9 | CC(C)(F)C(=O)NC[C@H]1CN(S(=O)(=O)c2cccc(C(F)(F)F)c2)c2cc(-c3cc(F)cc(OC(F)F)c3)ccc2O1 [Compound 30DG, (S)-N-((6-(3-(difluoromethoxy)-5-fluorophenyl)-4-((3-(trifluoro-methyl)phenyl)sulfonyl)-3,4-dihydro-2H-benzo[b][1,4]-oxazin-2-yl)methyl)-2-fluoro-2-methylpropanamide] | 500 to 5000 | * (The symbol “*” indicates a value in the range of 25 to 90) | < 500 | *** (The symbol “***” indicates a value in the range of greater than 150 to 200) | – | –
10 | CC(C)(CO)C(=O)NC[C@H]1CN(S(=O)(=O)c2cccc(C(F)(F)F)c2)c2cc(-c3cc(F)cc(OC(F)F)c3)ccc2O1 [Compound 30DH, (S)-N-((6-(3-(difluoromethoxy)-5-fluorophenyl)-4-((3-(trifluoro-methyl)phenyl)sulfonyl)-3,4-dihydro-2H-benzo[b][1,4]-oxazin-2-yl)methyl)-3-hydroxy-2,2-dimethylpropanamide] | < 500 | * (The symbol “*” indicates a value in the range of 25 to 90) | < 500 | *** (The symbol “***” indicates a value in the range of greater than 150 to 200) | – | –
11 | C=CCC(=O)NC[C@H]1CN(S(=O)(=O)c2cccc(C(F)(F)F)c2)c2cc(-c3cc(F)cc(OC(F)F)c3)ccc2O1 [Compound 30DI, (S)-N-((6-(3-(difluoromethoxy)-5-fluorophenyl)-4-((3-(trifluoro-methyl)phenyl)sulfonyl)-3,4-dihydro-2H-benzo[b][1,4]-oxazin-2-yl)methyl)but-3-enamide] | < 500 | * (The symbol “*” indicates a value in the range of 25 to 90) | < 500 | *** (The symbol “***” indicates a value in the range of greater than 150 to 200) | – | –
12 | O=C(NC[C@H]1CN(S(=O)(=O)c2cccc(C(F)(F)F)c2)c2cc(-c3cc(F)cc(OC(F)F)c3)ccc2O1)C1(F)CC1 [Compound 30DJ, (S)-N-((6-(3-(difluoromethoxy)-5-fluorophenyl)-4-((3-(trifluoro-methyl)phenyl)sulfonyl)-3,4-dihydro-2H-benzo[b][1,4]-oxazin-2-yl)methyl)-1-fluorocyclopropane-1-carboxamide] | 500 to 5000 | * (The symbol “*” indicates a value in the range of 25 to 90) | < 500 | *** (The symbol “***” indicates a value in the range of greater than 150 to 200) | – | –
